Experimental data reported in US20190091290A1, “MACROPHAGE STIMULATION IN CD47 BLOCKADE THERAPY” (TRILLIUM THERAPEUTICS INC., priority 2016, published 2019).
Entries after “also recorded” stand apart in the source; their conditions may differ.

Experiments:
CD64 = assay: FcγR (CD16, CD32, CD64) expression on re-polarized M0, M2a and M2b macrophages by flow cytometry; assay type: cell-based, human; conditions: overnight stimulation with the agent, FIG. 4
Description: Heparinized whole blood was obtained from normal healthy human donors (Biological Specialty Corporation) and informed consent was obtained from all donors. Peripheral blood mononuclear cells (PBMCs) were isolated over Ficoll-Paque Plus density gradient (GE Healthcare) and CD14+ monocytes were isolated from PBMCs by positive selection using CD14 antibody-coated MicroBead separation (Miltenyi Biotec). Monocytes were differentiated into macrophages by culturing for at least 10 days in X-Vivo-15 media (Lonza) supplemented with 20 ng/mL M-CSF (PeproTech). Macrophages were washed and were polarized into M0, M2a, and M2b by culturing one day with 20 ng/mL M-CSF, 20 ng/mL IL-4 (PeproTech) or 50 ug/mL heat aggregated human gamma globulin (HAGG) and 20 ng/mL IL-1β (PeproTech), respectively. One day following polarization, polarization media was washed off, and cells were treated with 20 ng/mL IFN-γ (Peprotech), 1000 U/mL IFNa2a (PBL Assay Science), 20 ng/mL IL-10 (PeproTech), 10 ug/mL Poly (I:C) (InvivoGen), 1 ug/mL LPS (MDBiosciences), 1 ug/mL R848 (InvivoGen), or 10 ug/mL ODN2395 CpG (InvivoGen) overnight. On the next day, macrophages were harvested using enzyme-free cell dissociation buffer (ThermoFisher) for analysis of CD16, CD32 and CD64 expression. Macrophages were blocked with human Fc receptor binding inhibitor (ebioscience) and were stained with Near-IR LIVE/DEAD fixable dead cell stain (Invitrogen), FITC-conjugated anti-CD16 (Clone CB16), FITC-conjugated anti-CD32 (Clone FL18.26) and V450-conjugated anti-CD64 (Clone 10.1) in three independent cocktails. Cells were washed and resuspended in stabilizing fixative (BD Biosciences), and data was acquired on a FACSVerse flow cytometry machine, and data was analyzed using FlowJo software (Treestar Inc.). Macrophages were identified as live, single cells. Doublets were excluded by SSC-W and SSC-H discrimination.

[1] = system: M0, M2a and M2b macrophages; assay: Phagocytic response to SIRPaFc after re-polarization of M0, M2a and M2b macrophages; assay type: cell-based, human; conditions: overnight treatment with the agent; FIGS. 3A-3C
Description: Heparinized whole blood was obtained from normal healthy human donors (Biological Specialty Corporation) and informed consent was obtained from all donors. Peripheral blood mononuclear cells (PBMCs) were isolated over Ficoll-Paque Plus density gradient (GE Healthcare) and CD14+ monocytes were isolated from PBMCs by positive selection using CD14 antibody-coated MicroBead separation (Miltenyi Biotec). Monocytes were differentiated into macrophages by culturing for at least 10 days in X-Vivo-15 media (Lonza) supplemented with 20 ng/mL M-CSF (PeproTech). Macrophages were washed and were polarized into M0, M2a, and M2b by culturing one day with 20 ng/mL M-CSF, 20 ng/mL IL-4 (PeproTech) or 50 ug/mL heat aggregated human gamma globulin (HAGG) and 20 ng/mL IL-1β (PeproTech), respectively. One day following polarization, polarization media was washed off, and cells were treated with 20 ng/mL IFN-γ (PeproTech), 1000 U/mL IFNα2a (PBL Assay Science), 20 ng/mL IL-10 (PeproTech), 10 ug/mL Poly (I:C) (InvivoGen), 1 ug/mL LPS (MDBiosciences), 1 ug/mL R848 (InvivoGen), or 10 ug/mL ODN2395 CpG (InvivoGen) overnight. On the next day, macrophages were harvested using enzyme-free cell dissociation buffer (ThermoFisher) for flow-based phagocytosis assay. Human B cell lymphoma cell line, Toledo, was labeled with Violet Proliferation Dye 450 (BD Biosciences) and added to repolarized macrophages in a round-bottom non-tissue culture treated 96-well plate at a 1:5 effector:target ratio. […] Cells were acquired on a FACSVerse flow cytometer, and data was analyzed using FlowJo software (Treestar Inc.). Macrophages were identified as live, single, CD14+CD11b+ cells. Doublets were excluded by SSC-W and SSC-H discrimination. Phagocytosis was assessed as the % of macrophages that were VPD450+. Statistical significance was calculated by unpaired t-test vs isotype control using GraphPad Prism software.

red blood cells = assay: Binding to red blood cells
[2] = system: cancer cells that present with a CD47+ phenotype; conditions: described in WO2014/094122; cited from earlier work
CD47 = CD47 (Homo sapiens, UniProt Q08722); assay: CD47 agonism upon binding
[3] = system: Human B cell lymphoma cell line, Toledo; assay: Flow-based phagocytosis assay: polarized human monocyte-derived macrophages co-cultured with Toledo tumor cells; assay type: cell-based; conditions: 1 uM SIRPaFc, FIG. 1
Description: Heparinized whole blood was obtained from normal healthy human donors (Biological Specialty Corporation) and informed consent was obtained from all donors. Peripheral blood mononuclear cells (PBMCs) were isolated over Ficoll-Paque Plus density gradient (GE Healthcare) and CD14+ monocytes were isolated from PBMCs by positive selection using CD14 antibody-coated MicroBead separation (Miltenyi Biotec). Monocytes were differentiated into macrophages by culturing for at least 10 days in X-Vivo-15 media (Lonza) supplemented with 20 ng/mL M-CSF (PeproTech). One day prior to the phagocytosis assay the monocyte-derived macrophages were either left untreated in M-CSF media (M0) or treated overnight with 20 ng/mL M-CSF and 300 ng/mL interferon-gamma (IFN-γ) (PeproTech) as M1, 50 ng/mL IFN-γ and 50 ng/mL LPS (MD Biosciences) as M1+LPS, 20 ng/mL IL-4 (PeproTech) as M2a, 20 ng/mL IL-1β (PeproTech) and 50 ug/mL heat aggregated human IgG (HAGG) as M2b or 20 ng/mL IL-10 (PeproTech) and 20 ng/mL TGF (PeproTech) as M2c. […] Cells were acquired on a FACSVerse flow cytometer, and data was analyzed using FlowJo software (Treestar Inc.). […] Doublets were excluded by SSC-W and SSC-H discrimination. % Phagocytosis was assessed as the % of macrophages that were VPD450+. Statistical significance was calculated by unpaired t-test vs isotype control using GraphPad Prism software, where p***<0.001.

Sequence of CD47 (Q08722 19-323): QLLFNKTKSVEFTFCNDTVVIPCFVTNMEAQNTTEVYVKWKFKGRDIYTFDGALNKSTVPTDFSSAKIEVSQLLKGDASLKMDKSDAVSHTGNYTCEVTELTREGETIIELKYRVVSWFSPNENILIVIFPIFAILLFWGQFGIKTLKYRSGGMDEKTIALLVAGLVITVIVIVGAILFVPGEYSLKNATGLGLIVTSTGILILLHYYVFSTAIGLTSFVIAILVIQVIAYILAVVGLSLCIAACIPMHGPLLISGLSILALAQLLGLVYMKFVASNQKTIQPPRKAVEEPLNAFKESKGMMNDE

Molecule | expression of CD64 on M0, M2a and M2b macrophages after repolarization (CD64) | expression of CD64 on M0, M2a and M2b macrophages after repolarization (CD64; listed as IFN-alpha) | responsiveness to SIRPaFc (phagocytosis of Toledo cells) of M0, M2a and M2b macrophages after repolarization [1] | binding to red blood cells (red blood cells) | effects on the viability of CD47+ cancer cells [2] | CD47 agonism when binding thereto (CD47) | phagocytosis of DLBCL Toledo cell line by all 6 macrophage subsets ([3]; M0, M1, M1+LPS, M2a, M2b, M2c macrophages from human PBMC, vs control Fc) | SIRPαFc induced phagocytosis by M1 (+/−LPS) and M2c MDMs compared to M0, M2a and M2b subsets ([3]; Toledo cells)
IFNα [reference compound] | increased | most striking | increased | – | – | – | – | –
SIRPaFc: human SIRPaFc comprising the V region of human SIRPa variant 2 fused to a wild type human IgG1 Fc region, SEQ ID NO: 3 | – | – | – | negligible binding | dramatic effects | negligible CD47 agonism | increased phagocytosis | superior
polyinosine-polycytidylic acid [Poly (I:C), reference compound] | increased | – | increased | – | – | – | – | –
IL-10: interleukin-10 (PeproTech), macrophage stimulating cytokine (protein, UniProt P22301 19-178, looked up) Interleukin-10: SPGQGTQSENSCTHFPGNLPNMLRDLRDAFSRVKTFFQMKDQLDNLLLKESLLEDFKGYLGCQALSEMIQFYLEEVMPQAENQDPDIKAHVNSLGENLKTLRLRLRRCHRFLPCENKSKAVEQVKNAFNKLQEKGIYKAMSEFDIFINYIEAYMTMKIRN | increased; also recorded: most striking | – | increased | – | – | – | – | –
IFNγ: interferon-gamma (PeproTech), macrophage stimulating cytokine (protein, UniProt P01579 24-161, looked up) Interferon gamma: QDPYVKEAENLKKYFNAGHSDVADNGTLFLGILKNWKEESDRKIMQSQIVSFYFKLFKNFKDDQSIQKSVETIKEDMNVKFFNSNKKKRDDFEKLTNYSVTDLNVQRKAIHELIQVMAELSPAAKTGKRKRSQMLFRG | increased | – | increased | – | – | – | – | –
